Test results as given in patent US20150025143A1, “BETA-HYDROXY-BETA-METHYLBUTYRIC ACID FOR IMPROVING GLUCOSE TOLERANCE” (ABBOTT LABORATORIES, priority 2012, published 2015).

Experiments:
[1] = tested on: Spragley-Dawley (SD) rats; assay: effect of an acute oral dose given before a glucose load on the blood glucose spike (lowering glycemic index); assay type: in vivo; conditions: given 30 minutes before glucose load of approximately 2 g/kg, FIG. 2
Experimental: In this Example, the effect of calcium HMB on lowering glycemic index was evaluated in an in vivo study. Particularly, an acute oral dose of calcium HMB was evaluated to determine whether, if given prior to a glucose load, the dose was able to blunt the initial glucose spike.
Spragley-Dawley (SD) rats (21 days post weaning) (n=7 or 8) were fed an oral dose of calcium HMB at a concentration of: 100 mg/kg (mpk), 300 mpk or 1000 mpk. After thirty minutes, the rats were then orally fed a glucose load consisting of a glucose solution having a concentration of approximately 2 g/kg body weight. A control group (n=4) was not fed the oral dose of calcium HMB prior to the glucose load.
Blood glucose levels of the rats were measured by tail snip using one-touch ultra Glucometer and glucose strips at different time points (0, 15, 30, 45, 60, 90, and 120 minutes).

C57BL/6J mice = assay: oral glucose tolerance after nine weeks of supplemented feeding and exercise; assay type: in vivo; conditions: 3.4 mg/g of pediatric nutritional supplement, fed nine weeks with exercise; oral glucose 2 g/Kg; compared to rodent pellet feed control, pediatric nutritional supplement control and both leucine groups (5 and 10 mg/g); FIG. 1
Experimental: In this Example, the effect of (1) HMB and (2) leucine on muscle glucose tolerance was analyzed in an in vivo study.
C57BL/6J mice (Charles River Laboratories, Wilmington Mass.), 21 days post-weaning, were fed either a commercially available pediatric nutritional supplement supplemented with either (1) calcium HMB or (2) leucine, and required to exercise, for nine weeks. […]
Following the nine weeks, the mice were kept overnight for fasting and body weight was recorded. […] Before glucose administration, the blood glucose was measured by tail snip using one-touch ultra Glucometer and glucose strips.
All test groups were orally administered the glucose solution at a concentration of 2 g/Kg body weight. […] After oral glucose administration, blood glucose levels were analyzed at different time points (i.e., 15, 30, 60, 90, and 120 minutes) using Glucometer and glucose strips.

CC(C)(O)CC(=O)O.[Ca] [Calcium HMB, calcium beta-hydroxy-beta-methylbutyric acid]
glucose spike at 15 minutes post dosing ([1]; 1000 mpk oral): significantly reduced glucose spike
glucose spike at early time points ([1]; high oral doses): significantly blunted glucose spike
glucose tolerance (blood glucose after oral glucose administration) (C57BL/6J mice): improved glucose tolerance
